Measured values from patent US20250386824A1, “COMPOSITION OF AN ORGANIC SULFIDE COMBINED WITH GLUCOSE AND USE THEREOF IN CONTROLLING MELON FUSARIUM WILT” (CH BIOTECH R&D CO., LTD., priority 2024, published 2025).

How the values were obtained:
[1] = test system: Fusarium oxysporum f.sp. melonis; assay: Greenhouse pot test: disease severity of melon Fusarium wilt after foliar spraying and root-cut inoculation; format: in vivo; conditions: Example 1, FIG. 1: 3% (w/v) glucose + 1% (w/v) organic sulfide, 400-fold dilution, foliar spray at 7 and 14 days of age; 3 weeks after inoculation; untreated control 2.33±0.21; mean ± SE
Experimental: Preparation of the inoculation source of Fusarium oxysporum f.sp. melonis (FOM): the soil-borne pathogen FOM strain used in the example is isolated from diseased melon plants in Wufeng District, Taichung City (24°02′24.6 ″N 120°39′55.0 ″E). The single spores of the strain are independently cultured on potato dextrose agar (PDA; Difco®) medium plates in a 25° C. incubator with 12 hours of light exposure per day. The mycelial pieces of the FOM strain are inoculated into ½ potato dextrose broth (PDB) and incubated in shaking flasks for 14 days. After the incubation, the culture is filtered through a double-layer Miracloth (475855 Calbiochem, Merk Darmstadt, Germany) to obtain a spore suspension with a concentration of 10^5 spores/mL, which is ready to be used in the pathogenic infection of melon root.
At the 24 hours after the final spraying, the root of test melon plants is washed with water to remove the cultivating medium. […] After 3 weeks, the symptoms and severity of wilt disease in melon plants are observed and recorded. […]
The disease severity is calculated by the following formula, wherein si represents the severity of wilt disease; n; represents the number of plants with various severity, and N represents the total number of plants investigated.
Statistical Analysis. The results are analyzed using RStudio v.4.3.0 (R) software. […]

melon's third leaf = assay: Chlorophyll fluorescence photosynthesis: electron transport rate (ETR) of melon's third leaf after foliar spraying; conditions: foliar spray, after 30 minutes of actinic light, mean ± SE, n=5
Experimental: In the following examples, a melon species Cucumis melo var. makuwa cv. Silver Light (Nongyou Seedling Co., Kaohsiung, Taiwan) is used as the test crop. Seeds of the test crop are stirred and rinsed in warm water at 65° C. for 20 minutes, then further stirred and rinsed with sterile water twice, each for 20 minutes, and then placed in a 25° C. incubator for germination for 48 hours. After the radicle has grown, the seedlings are sown in trays containing Sondermischung (perlite high) cultivating medium (Gramoflor, Germany). When the leaves are fully expanded, the seedlings are transplanted into 3.5-inch plastic pots (inner diameter: 9 cm) and continue planting. The melon plants are ready for following experiments when their first real leaves are fully expanded (the plant is about 7 days of age).
The compositions of 3% (w/v) glucose amended with 1% (w/v) an organic sulfide selected from allicin, dimethyl disulfide (DMDS), lipoic acid, methionine and taurine, with two hundred-fold and four hundred-fold dilution in water, are sprayed on the leaves of the melon seedlings, and the chlorophyll fluorescence photosynthesis of the third real leaf is investigated during the growing period of melons. […] The third real leaf of melon is clipped to measure the leaf chlorophyll fluorescence parameters. […]

| Compound | Disease severity of melon Fusarium wilt (scale 0-4) [1] | ETR (electron transport rate of PSII on third leaf of melon) (melon's third leaf; 200X dilution of 1% (w/v) organic sulfide with 3% (w/v) glucose) [μmol electrons m^−2 s^−1] | ETR (electron transport rate of PSII on third leaf of melon) (melon's third leaf; 400X dilution of 1% (w/v) organic sulfide with 3% (w/v) glucose) [μmol electrons m^−2 s^−1] |
| --- | --- | --- | --- |
| CSSC [DMDS, dimethyl disulfide] | 1.83±0.25 | 110.24 ± 2.72 | 117.68 ± 3.83 |
| NCCS(=O)(=O)O [Taurine, 2-aminoethanesulfonic acid] | 2.00±0.18 |  |  |
